According to patent publication US12172995B2, “Substituted indole and indazole compounds” (BRISTOL-MYERS SQUIBB COMPANY, priority 2018, dated 2024):

How the values were obtained:
Format in all cases: cell-based
human TLR8 = biological target: T1, human TLR8 (Homo sapiens, UniProt Q9NR97); experiment: TLR8 inhibition reporter assay (HEK-Blue SEAP); conditions: HEK-Blue cells overexpressing human TLR8, stimulated with R848 15.9 μM, 22 hour incubation
T1 construct: host or cells: HEK-Blue cells
T1 sequence (Q9NR97 27-1041): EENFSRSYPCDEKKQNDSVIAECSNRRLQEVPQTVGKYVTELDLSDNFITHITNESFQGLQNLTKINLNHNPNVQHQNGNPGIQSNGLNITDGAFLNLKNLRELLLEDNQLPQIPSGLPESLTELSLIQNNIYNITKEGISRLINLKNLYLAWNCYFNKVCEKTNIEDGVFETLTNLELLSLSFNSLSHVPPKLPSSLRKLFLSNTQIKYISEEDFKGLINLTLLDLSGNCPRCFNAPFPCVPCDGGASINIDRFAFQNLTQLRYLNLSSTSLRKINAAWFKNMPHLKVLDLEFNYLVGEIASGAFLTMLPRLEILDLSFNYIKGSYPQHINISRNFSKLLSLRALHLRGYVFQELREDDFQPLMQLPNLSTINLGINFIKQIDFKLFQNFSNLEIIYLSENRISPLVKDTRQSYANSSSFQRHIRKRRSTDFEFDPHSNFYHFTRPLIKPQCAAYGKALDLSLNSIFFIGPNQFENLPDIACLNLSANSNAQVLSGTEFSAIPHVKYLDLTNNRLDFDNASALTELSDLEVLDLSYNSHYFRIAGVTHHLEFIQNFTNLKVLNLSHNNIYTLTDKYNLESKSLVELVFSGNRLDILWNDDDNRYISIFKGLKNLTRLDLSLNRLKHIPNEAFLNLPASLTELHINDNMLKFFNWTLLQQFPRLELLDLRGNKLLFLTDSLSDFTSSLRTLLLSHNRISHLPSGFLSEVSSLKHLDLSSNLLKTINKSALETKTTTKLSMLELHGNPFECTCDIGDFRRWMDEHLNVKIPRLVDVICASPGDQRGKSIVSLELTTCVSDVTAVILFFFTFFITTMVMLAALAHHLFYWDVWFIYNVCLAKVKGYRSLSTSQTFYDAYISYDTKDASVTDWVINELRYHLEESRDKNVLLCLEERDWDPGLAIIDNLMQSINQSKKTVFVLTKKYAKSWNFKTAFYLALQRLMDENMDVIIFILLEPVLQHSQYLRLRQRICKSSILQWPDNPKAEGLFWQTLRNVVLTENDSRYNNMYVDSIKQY
Method in brief: (§1)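 Reporter HEK-Blue lines; cpd 0.05 nM–50 μM, 30 min preincubation RT; agonist: TLR7 gardiquimod 7.5 μM, TLR8 R848 15.9 μM, TLR9 ODN2006 5 nM; 22 h 37 °C; SEAP detected colorimetrically; % inhib vs known inhibitor.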

human TLR7 = biological target: T2, human TLR7 (Homo sapiens, UniProt Q9NYK1); experiment: TLR7 inhibition reporter assay (HEK-Blue SEAP); conditions: HEK-Blue cells overexpressing human TLR7, stimulated with gardiquimod 7.5 μM, 22 hour incubation
T2 construct: host or cells: HEK-Blue cells
T2 sequence (Q9NYK1 27-1049): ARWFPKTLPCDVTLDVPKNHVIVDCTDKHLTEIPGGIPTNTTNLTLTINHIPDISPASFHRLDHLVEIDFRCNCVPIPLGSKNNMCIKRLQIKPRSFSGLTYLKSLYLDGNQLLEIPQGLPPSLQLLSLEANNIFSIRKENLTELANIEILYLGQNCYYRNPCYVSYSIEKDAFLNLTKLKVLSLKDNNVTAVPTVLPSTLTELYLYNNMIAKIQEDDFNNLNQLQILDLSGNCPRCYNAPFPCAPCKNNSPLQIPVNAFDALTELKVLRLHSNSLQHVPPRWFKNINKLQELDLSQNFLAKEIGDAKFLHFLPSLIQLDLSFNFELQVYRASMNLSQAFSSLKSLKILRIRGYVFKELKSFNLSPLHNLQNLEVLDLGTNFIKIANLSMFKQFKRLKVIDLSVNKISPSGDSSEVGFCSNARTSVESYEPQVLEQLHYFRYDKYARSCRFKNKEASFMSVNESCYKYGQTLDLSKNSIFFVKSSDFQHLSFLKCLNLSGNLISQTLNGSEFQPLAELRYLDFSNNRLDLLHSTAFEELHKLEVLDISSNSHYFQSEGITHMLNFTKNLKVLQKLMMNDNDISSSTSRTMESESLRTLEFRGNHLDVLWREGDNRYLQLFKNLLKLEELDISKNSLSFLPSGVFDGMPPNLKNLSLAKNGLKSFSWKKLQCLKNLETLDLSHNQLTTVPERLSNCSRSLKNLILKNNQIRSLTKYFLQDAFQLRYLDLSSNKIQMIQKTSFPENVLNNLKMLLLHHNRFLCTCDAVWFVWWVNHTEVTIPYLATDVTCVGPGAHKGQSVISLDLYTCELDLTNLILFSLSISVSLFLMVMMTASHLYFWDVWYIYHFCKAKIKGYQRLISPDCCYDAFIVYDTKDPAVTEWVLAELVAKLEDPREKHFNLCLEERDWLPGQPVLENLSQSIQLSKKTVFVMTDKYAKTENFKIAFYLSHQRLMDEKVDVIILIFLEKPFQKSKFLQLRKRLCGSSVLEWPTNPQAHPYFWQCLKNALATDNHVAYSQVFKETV
Method in brief: as §1

human TLR9 = biological target: T3, human TLR9 (Homo sapiens, UniProt Q9NR96); experiment: TLR9 inhibition reporter assay (HEK-Blue SEAP); conditions: HEK-Blue cells overexpressing human TLR9, stimulated with ODN2006 5 nM, 22 hour incubation
T3 construct: host or cells: HEK-Blue cells
T3 sequence (Q9NR96 26-1032): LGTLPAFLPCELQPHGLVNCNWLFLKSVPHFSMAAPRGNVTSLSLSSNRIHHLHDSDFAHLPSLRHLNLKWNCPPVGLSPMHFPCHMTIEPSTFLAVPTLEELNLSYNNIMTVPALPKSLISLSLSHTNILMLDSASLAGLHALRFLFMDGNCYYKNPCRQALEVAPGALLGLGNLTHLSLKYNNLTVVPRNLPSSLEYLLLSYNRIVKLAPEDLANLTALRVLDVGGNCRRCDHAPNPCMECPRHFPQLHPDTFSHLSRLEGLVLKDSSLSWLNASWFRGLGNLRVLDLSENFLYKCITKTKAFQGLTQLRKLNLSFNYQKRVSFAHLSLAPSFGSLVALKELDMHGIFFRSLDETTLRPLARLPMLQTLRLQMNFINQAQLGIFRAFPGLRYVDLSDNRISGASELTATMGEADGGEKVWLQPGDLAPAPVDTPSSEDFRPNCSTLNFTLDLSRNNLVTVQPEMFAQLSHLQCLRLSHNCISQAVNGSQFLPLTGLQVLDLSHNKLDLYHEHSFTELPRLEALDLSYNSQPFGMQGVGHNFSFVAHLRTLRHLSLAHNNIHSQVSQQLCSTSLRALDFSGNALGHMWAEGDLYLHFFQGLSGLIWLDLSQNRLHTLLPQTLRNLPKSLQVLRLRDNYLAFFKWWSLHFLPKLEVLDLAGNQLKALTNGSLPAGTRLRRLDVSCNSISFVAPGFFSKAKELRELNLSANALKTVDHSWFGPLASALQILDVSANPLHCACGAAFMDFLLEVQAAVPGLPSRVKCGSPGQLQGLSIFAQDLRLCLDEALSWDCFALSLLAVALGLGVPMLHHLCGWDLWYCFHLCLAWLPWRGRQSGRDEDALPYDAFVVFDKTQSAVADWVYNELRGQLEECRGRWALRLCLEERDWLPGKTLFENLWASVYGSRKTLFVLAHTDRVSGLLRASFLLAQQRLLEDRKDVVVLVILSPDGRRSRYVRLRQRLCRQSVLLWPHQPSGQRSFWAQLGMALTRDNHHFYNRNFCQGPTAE
Method in brief: as §1

| Compound | IC50 (human TLR8) [nM] | IC50 (human TLR7) [nM] | IC50 (human TLR9) [nM] |
| --- | --- | --- | --- |
| Cc1cc2c(C3CCCN(CC(=O)N(C)C)C3)n[nH]c2cc1-c1cc(C)c2ncnn2c1 (stereo not drawn) [Example 53, N,N-dimethyl-2-(3-(5-methyl-6-(8-methyl-[1,2,4]triazolo[1,5-a]pyridin-6-yl)-1H-indazol-3-yl)piperidin-1-yl)acetamide] | 1.2 | 44.2 | 5830 |
| Cc1cc2c(NC(=O)C3CCNCC3)n[nH]c2cc1-c1cc(C)c2ncnn2c1 [Example 202, N-(5-methyl-6-(8-methyl-[1,2,4]triazolo[1,5-a]pyridin-6-yl)-1H-indazol-3-yl)piperidine-4-carboxamide] | 15.3 | 266 | 9920 |
| Cc1cc2c(C3CCCN(C4COC4)C3)n[nH]c2cc1-c1cc(C)c2ncnn2c1 (stereo not drawn) [Example 42, 8-methyl-6-(5-methyl-3-(1-(oxetan-3-yl)piperidin-3-yl)-1H-indazol-6-yl)-[1,2,4]triazolo[1,5-a]pyridine] | 0.9 | 83.6 | 14500 |
| Cc1cc(-c2cc3[nH]nc(C4CCN(C(=O)CN(C)C)CC4)c3cc2C(C)C)cn2ncnc12 [Example 111, 2-(dimethylamino)-1-(4-(5-isopropyl-6-(8-methyl-[1,2,4]triazolo[1,5-a]pyridin-6-yl)-1H-indazol-3-yl)piperidin-1-yl)ethan-1-one] | 0.5 | 1.8 | 18600 |
| Cc1cc2c(C3CCNCC3)n[nH]c2cc1-c1cc(-c2cncnc2)c2ncnn2c1 [Example 85, 6-(5-methyl-3-(piperidin-4-yl)-1H-indazol-6-yl)-8-(pyrimidin-5-yl)-[1,2,4]triazolo[1,5-a]pyridine] | 1.5 | 33 | 3940 |
| Cc1cc2c(C3CCC(NC4CC4)CC3)n[nH]c2cc1-c1cc(C)c2ncnn2c1 (stereo not drawn) [Example 37, N-cyclopropyl-4-(5-methyl-6-(8-methyl-[1,2,4]triazolo[1,5-a]pyridin-6-yl)-1H-indazol-3-yl)cyclohexan-1-amine] | 0.4 | 12.4 | 5140 |
| CCc1cc2c(C3CCC(N(C)C)CC3)n[nH]c2cc1-c1cc(C)c2ncnn2c1 (single isomer, unassigned) [Example 93, 4-(5-ethyl-6-(8-methyl-[1,2,4]triazolo[1,5-a]pyridin-6-yl)-1H-indazol-3-yl)-N,N-dimethylcyclohexan-1-amine] | 0.1 | 0.8 | 6120 |
| Cc1cc(-c2cc(C)c3ncnn3c2)cc2[nH]ncc12 [Example 65, 8-methyl-6-(4-methyl-1H-indazol-6-yl)-[1,2,4]triazolo[1,5-a]pyridine] | 47 | 219 | ≥ 50000 |
| CCc1cc2c(C3CCN(C4CCOCC4)CC3)n[nH]c2cc1-c1cc(C)c2ncnn2c1 [Example 88, 6-(5-ethyl-3-(1-(tetrahydro-2H-pyran-4-yl)piperidin-4-yl)-1H-indazol-6-yl)-8-methyl-[1,2,4]triazolo[1,5-a]pyridine] | 0.2 | 3.7 | 14200 |

More lines, in order of falling IC50 (human TLR8), values ahead:

| IC50 (human TLR8) [nM] | IC50 (human TLR7) [nM] | IC50 (human TLR9) [nM] | Compound |
| --- | --- | --- | --- |
| 115 | 80.6 | 3430 | Cc1cc(-c2ccc3c(C4CCC(N(C)C)CC4)c[nH]c3c2)cn2ncnc12 (single isomer, unassigned) [Example 14, N,N-dimethyl-4-(6-(8-methyl-[1,2,4]triazolo[1,5-a]pyridin-6-yl)-1H-indol-3-yl)cyclohexan-1-amine] |
| 19.9 | 71.7 | ≥ 50000 | Cc1cc2c(OC3CCC(N(C)C)CC3)n[nH]c2cc1-c1cc(C)c2ncnn2c1 (single isomer, unassigned) [Example 181, N,N-dimethyl-4-((5-methyl-6-(8-methyl-[1,2,4]triazolo[1,5-a]pyridin-6-yl)-1H-indazol-3-yl)oxy)cyclohexan-1-amine] |
| 0.8 | 6.9 | 13600 | CCc1cc2c(C3CCN(CC#N)CC3)n[nH]c2cc1-c1cc(C)c2ncnn2c1 [Example 104, 2-(4-(5-ethyl-6-(8-methyl-[1,2,4]triazolo[1,5-a]pyridin-6-yl)-1H-indazol-3-yl)piperidin-1-yl)acetonitrile] |
| 0.1 | 1.5 | 6450 | Cc1cc(-c2cc3[nH]nc(C4CCC(N5CCC(F)C5)CC4)c3cc2C(C)C)cn2ncnc12 (stereo not drawn) [Example 164, 6-(3-(4-(3-fluoropyrrolidin-1-yl)cyclohexyl)-5-isopropyl-1H-indazol-6-yl)-8-methyl-[1,2,4] triazolo[1,5-a]pyridine] |
| 0.1 | 0.9 | 5430 | Cc1cc(-c2cc3[nH]nc(C4CCC(N5CCOCC5)CC4)c3cc2C(C)C)cn2ncnc12 (stereo not drawn) [Example 132, 4-(4-(5-isopropyl-6-(8-methyl-[1,2,4]triazolo[1,5-a]pyridin-6-yl)-1H-indazol-3-yl)cyclohexyl)morpholine] |
